Target: T1, human NPY Y5 receptor (Homo sapiens, UniProt Q15761)
T1 construct: expressed in transfected cells; host or cells: COS-7, CHO and LM(tk-)
T1 sequence (Q15761 1-445): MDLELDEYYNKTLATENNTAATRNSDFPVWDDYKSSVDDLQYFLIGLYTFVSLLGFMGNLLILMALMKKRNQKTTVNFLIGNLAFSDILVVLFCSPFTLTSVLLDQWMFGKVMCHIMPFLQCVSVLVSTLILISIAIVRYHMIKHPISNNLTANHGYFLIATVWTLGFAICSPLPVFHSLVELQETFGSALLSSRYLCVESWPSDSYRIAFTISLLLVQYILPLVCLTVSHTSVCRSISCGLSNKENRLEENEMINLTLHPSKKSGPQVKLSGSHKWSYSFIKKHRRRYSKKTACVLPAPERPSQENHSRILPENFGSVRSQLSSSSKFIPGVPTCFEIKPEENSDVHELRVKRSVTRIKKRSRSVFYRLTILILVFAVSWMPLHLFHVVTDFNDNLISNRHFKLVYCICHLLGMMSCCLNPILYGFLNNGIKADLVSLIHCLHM
Assay: NPY binding inhibition test ([125I]peptide YY binding to membranes of NPY Y5 receptor expressing cells)
Conditions: membrane sample of NPY Y5 receptor expressed cells, 25° C., 2 hours, read-out: IC50 against specific peptide YY binding
Text: The cDNA sequence (refer to the specification of WO 96/16542) encoding human NPY Y5 receptor was cloned into the expression vectors, pcDNA3, pRc/RSV (supplied by Invitrogen Co.) and pCI-neo (supplied by Promega Co.). The resultant expression vectors were transfected into the host cells, COS-7, CHO and LM(tk−) (American Type Culture Collection) using the cationic lipid method (refer to Proceedings of the National Academy of Sciences of the United States of America, vol. 84, pp. 7413 (1987)) to give NPY Y5 receptor expression cells. A membrane sample prepared from the NPY Y5 receptor expressed cells was incubated together with a test compound and 20,000 cpm of [^125I]peptide YY (supplied by NEN Co.) in an assay buffer (25 mM Tris buffer, pH 7.4, containing 10 mM of magnesium chloride, 1 mM of phenylmethylsulfonyl fluoride, 0.1% bacitracin and 0.5% bovine serum albumin) at 25° C. for 2 hours, followed by filtration through glassfilter GF/C. After washing with 5 mM Tris buffer (pH7.4) containing 0.3% BSA, radioactivity of the cake on the filter was measured. Non-specific binding was measured in the presence of 1 μM of peptide YY, and a 50% Inhibition Concentration (IC50 value) of the test compound against specific peptide YY binding was determined (refer to Endocrinology, vol. 131, pp. 2090 (1992)).

Row | SMILES | IC50
1 | CC(C)(C)S(=O)(=O)N[C@H]1CC[C@H](c2nc3nc(-c4ccccc4)ncc3[nH]2)CC1 [Example 9, 8-(trans-4-tert-butylsulfonylamino-cyclohexyl)-2-phenylpurine] | 1.6 nM
2 | CC(C)(C)S(=O)(=O)NC1CCN(c2nc3ccc(-c4ccccc4)cc3[nH]2)CC1 [Example 17, 2-(4-tert-butylsulfonylaminopiperidin-1-yl)-5-phenylbenzimidazole] | 1.5 nM
3 | CS(=O)(=O)Nc1ccccc1N1CCN(c2nc3nc(-c4ccccc4)ncc3[nH]2)CC1 [Example 22, 8-{1-(2-methylsulfonylaminophenyl)piperazin-4-yl}-2-phenylpurine] | 1.7 nM

Stronger by IC50, values ahead:

Row | IC50 | SMILES
4 | 1.4 nM | CC(C)(C)S(=O)(=O)N[C@H]1CC[C@H](c2nc3nc(-c4ccccc4F)ccc3[nH]2)CC1 [Example 4, 2-(trans-4-tert-butylsulfonylamino-cyclohexyl)-5-(2-fluorophenyl)imidazo[4,5-b]pyridine]
5 | 1.2 nM | CC(C)(C)S(=O)(=O)N[C@H]1CC[C@H](c2nc3nc(-c4ccc(F)cc4)ncc3[nH]2)CC1 [Example 7, 8-(trans-4-tert-butylsulfonylamino-cyclohexyl)-2-(4-fluorophenyl)purine]
6 | 0.67 nM | CC(C)(C)S(=O)(=O)N[C@H]1CC[C@H](c2nc3ccc(-c4ccccc4)cc3[nH]2)CC1 [Example 3, 2-(trans-4-tert-butylsulfonylamino-cyclohexyl)-5-phenylbenzimidazole]

Reference: patent US7691860B2, “Sulfonamide derivatives” (Banyu Pharmaceutical Co., Ltd., priority 2004, dated 2010)
